Drawing on ChEMBL document CHEMBL5365482, “Rational Design of Sulfonyl-γ-AApeptides as Highly Potent HIV-1 Fusion Inhibitors with Broad-Spectrum Activity” (J Med Chem, 2023), this text covers IC50, CC50 and selectivity ratio for eleven compounds.

Usually IC50 stands for the concentration that gives 50% inhibition. Broadly, the CC50 is the concentration at which the toxic effect on the cells reaches its halfway point.

A value given as a limit tells only on which side of the number the result lay.

The test system of data set [1] is Human immunodeficiency virus 1. Kind of data set: Antiviral activity against HIV1 IIIB infected in human MT2 cells assessed as inhibition of viral growth incubated for 30 mins by ELISA assay. In kind it is functional, organism-based. The conditions noted are these: Human immunodeficiency virus 1, IIIB, MT2, 0.5 h. In general terms: In an ELISA, binding on a coated surface is turned into a signal by an enzyme label.

Data set [2] is described as follows: Cytotoxicity against human MT2 cells assessed as inhibition of cell growth measured after 3 days by CCK8 assay. In kind it is toxicity, cell-based. Particulars: time 3 day. A general note: Tetrazolium assays rely on reduction of a dye to a coloured formazan, in cell work by metabolically active cells.
Data set [3] in a line: Selectivity index, ratio of CC50 for human MT2 cells to IC50 for HIV1 IIIB infected in human MT2 cells. Particulars: read-out: Ratio CC50/IC50. Format: toxicity, cell-based.

Consider `CC[C@H](C)[C@H](NC(=O)[C@H](CC(C)C)NC(=O)[C@H](CCC(=O)O)NC(=O)[C@H](CCC(=O)O)NC(=O)[C@@H](NC(=O)[C@H](CCCCN)NC(=O)[C@H](CCCCN)NC(=O)[C@@H](NC(=O)[C@H](Cc1ccc(O)cc1)NC(=O)[C@H](CCC(=O)O)NC(=O)[C@H](CCC(=O)O)NC(=O)[C@@H](NC(=O)[C@H](CCCCN)NC(=O)[C@H](CCCCN)NC(=O)[C@H](CC(=O)O)NC(=O)[C@H](Cc1cc2ccccc2[nH]1)NC(=O)[C@H](CCC(=O)O)NC(=O)[C@H](CCC(=O)O)NC(=O)[C@H](Cc1cc2ccccc2[nH]1)NC(=O)[C@@H](NC(=O)[C@H](CCSC)NC(C)=O)[C@@H](C)O)[C@@H](C)CC)[C@H](C)O)[C@@H](C)CC)C(=O)N[C@@H](CCCCN)C(=O)N[C@@H](CCCCN)C(=O)N[C@@H](CO)C(N)=O`, for which, in data set [1], the IC50 worked out at 0.001 µM.
With `CC[C@@H](C)[C@@H](CN(CC(=O)N[C@@H](CCC(=O)O)CN(CC(=O)N[C@@H](CC(C)C)CN(CC(N)=O)S(=O)(=O)CC(C)C)S(=O)(=O)c1ccc(C(=O)O)cc1)S(=O)(=O)CC(C)C)NC(=O)CN(C[C@H](CCCCN)NC(=O)CN(C[C@H](Cc1ccc(O)cc1)NC(=O)CN(C[C@H](CCC(=O)O)NC(=O)CN(C[C@@H](NC(=O)CN(C[C@H](CCCCN)NC(=O)CN(C[C@H](Cc1c[nH]c2ccccc12)NC(=O)CN(C[C@H](CCC(=O)O)NC(=O)CN(C[C@H](Cc1c[nH]c2ccccc12)NC(=O)CN(C[C@H](CCSC)NC(C)=O)S(C)(=O)=O)S(=O)(=O)CC(C)C)S(=O)(=O)c1ccc(C(=O)O)cc1)S(=O)(=O)CC(C)C)S(=O)(=O)CCN)[C@H](C)CC)S(=O)(=O)CC(C)C)S(=O)(=O)c1ccc(C(=O)O)cc1)S(=O)(=O)CC(C)C)S(=O)(=O)CCN`, in data set [1], the IC50 was 38.9 µM. Moreover, the half-maximal cytotoxic concentration (CC50) at 72 h in data set [2] is above 100 µM. In data set [3], the selectivity ratio is above 2.5.
Consider `CC[C@@H](C)[C@@H](CN(CC(=O)N[C@@H](CCC(=O)O)CN(CC(=O)N[C@@H](CC(C)C)CN(CC(N)=O)S(=O)(=O)CC(C)C)S(=O)(=O)c1ccc(C(=O)O)cc1)S(=O)(=O)CC(C)C)NC(=O)CN(C[C@H](CCCCN)NC(=O)CN(C[C@H](Cc1ccc(O)cc1)NC(=O)CN(C[C@H](CCC(=O)O)NC(=O)CN(C[C@@H](NC(=O)CN(C[C@H](CCCCN)NC(=O)CN(C[C@H](Cc1c[nH]c2ccccc12)NC(=O)CN(C[C@H](CCC(=O)O)NC(=O)CN(C[C@H](Cc1c[nH]c2ccccc12)NC(=O)CN(C[C@H](CCSC)NC(C)=O)S(=O)(=O)CC(C)C)S(=O)(=O)CC(C)C)S(=O)(=O)c1ccc(C(=O)O)cc1)S(=O)(=O)CC(C)C)S(=O)(=O)CCN)[C@H](C)CC)S(=O)(=O)CC(C)C)S(=O)(=O)c1ccc(C(=O)O)cc1)S(C)(=O)=O)S(=O)(=O)CCN`, for which the concentration for half-maximal inhibition (IC50) in data set [1] is above 100 µM. Besides, the 50% cytotoxic concentration (CC50) at 72 h in data set [2] was above 100 µM.
Consider `CC[C@@H](C)[C@@H](CN(CC(=O)N[C@@H](CCC(=O)O)CN(CC(=O)N[C@@H](CC(C)C)CN(CC(=O)N[C@@H](CCCCN)CN(CC(=O)N[C@@H](C)CN(CC(=O)N[C@@H](CCC(=O)O)CN(CC(=O)N[C@@H](CCCCN)CN(CC(=O)N[C@@H](CCCCN)CN(CC(=O)N[C@@H](CCC(=O)O)CN(CC(=O)N[C@@H](CCC(=O)O)CN(CC(=O)N[C@@H](CC(C)C)CN(CC(=O)N[C@@H](CCCCN)CN(CC(N)=O)S(=O)(=O)CCN)S(=O)(=O)CC(C)C)S(=O)(=O)c1ccc(C(=O)O)cc1)S(=O)(=O)c1ccc(C(=O)O)cc1)S(=O)(=O)CCN)S(=O)(=O)CCN)S(=O)(=O)c1ccc(C(=O)O)cc1)S(C)(=O)=O)S(=O)(=O)CCN)S(=O)(=O)CC(C)C)S(=O)(=O)c1ccc(C(=O)O)cc1)S(=O)(=O)CC(C)C)NC(C)=O`, for which the IC50 in data set [1] is above 40 µM. Besides, in data set [2], the CC50 at 72 h is above 40 µM.
As for `CC[C@@H](C)[C@@H](CN(CC(=O)N[C@@H](CCC(=O)O)CN(CC(=O)N[C@@H](CC(C)C)CN(CC(N)=O)S(=O)(=O)CC(C)C)S(=O)(=O)c1ccc(C(=O)O)cc1)S(=O)(=O)CC(C)C)NC(=O)CN(C[C@H](CCCCN)NC(=O)CN(C[C@H](Cc1ccc(O)cc1)NC(=O)CN(C[C@H](CCC(=O)O)NC(=O)CN(C[C@@H](NC(=O)CN(C[C@H](CCCCN)NC(=O)CN(C[C@H](Cc1c[nH]c2ccccc12)NC(=O)CN(C[C@H](CCC(=O)O)NC(=O)CN(C[C@H](Cc1c[nH]c2ccccc12)NC(=O)CN(C[C@H](CCSC)NC(C)=O)S(=O)(=O)CC(C)C)S(=O)(=O)CC(C)C)S(=O)(=O)c1ccc(C(=O)O)cc1)S(=O)(=O)CC(C)C)S(=O)(=O)CCN)[C@H](C)CC)S(=O)(=O)CC(C)C)S(C)(=O)=O)S(=O)(=O)CC(C)C)S(=O)(=O)CCN`, in data set [1], the half-maximal inhibitory concentration (IC50) is above 40 µM. The CC50 at 72 h in data set [2] is above 40 µM.
As for `CC[C@@H](C)[C@@H](CN(CC(=O)N[C@@H](CCC(=O)O)CN(CC(=O)N[C@H](CO)CN(CC(=O)N[C@@H](CCCCN)CN(CC(=O)N[C@H](CN(CC(=O)N[C@@H](CCC(=O)O)CN(CC(=O)N[C@@H](CC(C)C)CN(CC(N)=O)S(=O)(=O)CC(C)C)S(=O)(=O)c1ccc(C(=O)O)cc1)S(=O)(=O)CC(C)C)[C@H](C)CC)S(=O)(=O)CCN)S(=O)(=O)CC(C)C)S(=O)(=O)c1ccc(C(=O)O)cc1)S(=O)(=O)CC(C)C)NC(=O)CN(C[C@@H](CCCCN)NC(=O)CN(C[C@H](Cc1c[nH]c2ccccc12)NC(=O)CN(C[C@H](CCC(=O)O)NC(=O)CN(C[C@H](Cc1c[nH]c2ccccc12)NC(=O)CN(C[C@H](CCSC)NC(C)=O)S(=O)(=O)CC(C)C)S(=O)(=O)CC(C)C)S(=O)(=O)c1ccc(C(=O)O)cc1)S(=O)(=O)CC(C)C)S(=O)(=O)CCN`, the half-inhibitory concentration (IC50) in data set [1] is above 100 µM. In data set [2], the CC50 at 72 h is above 100 µM.
For `CC[C@@H](C)[C@@H](CN(CC(=O)N[C@@H](CCC(=O)O)CN(CC(=O)N[C@@H](CC(C)C)CN(CC(N)=O)S(=O)(=O)CC(C)C)S(C)(=O)=O)S(=O)(=O)CC(C)C)NC(=O)CN(C[C@H](CCCCN)NC(=O)CN(C[C@H](Cc1ccc(O)cc1)NC(=O)CN(C[C@H](CCC(=O)O)NC(=O)CN(C[C@@H](NC(=O)CN(C[C@H](CCCCN)NC(=O)CN(C[C@H](Cc1c[nH]c2ccccc12)NC(=O)CN(C[C@@H](CCC(=O)O)NC(=O)CN(C[C@H](Cc1c[nH]c2ccccc12)NC(=O)CN(C[C@H](CCSC)NC(C)=O)S(=O)(=O)CC(C)C)S(=O)(=O)CC(C)C)S(C)(=O)=O)S(=O)(=O)CC(C)C)S(=O)(=O)CCN)[C@H](C)CC)S(=O)(=O)CC(C)C)S(C)(=O)=O)S(=O)(=O)CC(C)C)S(=O)(=O)CCN`, in data set [1], the concentration for half-maximal inhibition (IC50) was above 100 µM. Further, the CC50 at 72 h in data set [2] is above 100 µM.
`CC[C@@H](C)[C@@H](CN(CC(=O)N[C@@H](CCC(=O)O)CN(CC(=O)N[C@@H](CC(C)C)CN(CC(N)=O)S(=O)(=O)CC(C)C)S(C)(=O)=O)S(=O)(=O)CC(C)C)NC(=O)CN(C[C@H](CCCCN)NC(=O)CN(C[C@H](Cc1ccc(O)cc1)NC(=O)CN(C[C@H](CCC(=O)O)NC(=O)CN(C[C@@H](NC(=O)CN(C[C@H](CCCCN)NC(=O)CN(C[C@H](Cc1c[nH]c2ccccc12)NC(=O)CN(C[C@H](CCC(=O)O)NC(=O)CN(C[C@H](Cc1c[nH]c2ccccc12)NC(=O)CN(C[C@H](CCSC)NC(C)=O)S(=O)(=O)CC(C)C)S(=O)(=O)CC(C)C)S(=O)(=O)c1ccc(C(=O)O)cc1)S(=O)(=O)CC(C)C)S(=O)(=O)CCN)[C@H](C)CC)S(=O)(=O)CC(C)C)S(=O)(=O)c1ccc(C(=O)O)cc1)S(=O)(=O)CC(C)C)S(=O)(=O)CCN`: the IC50 in data set [1] is above 40 µM. Also, the CC50 at 72 h in data set [2] is above 40 µM.
In the case of `CC[C@@H](C)[C@@H](CN(CC(=O)N[C@@H](CCC(=O)O)CN(CC(=O)N[C@@H](CC(C)C)CN(CC(N)=O)S(=O)(=O)CC(C)C)S(=O)(=O)c1ccc(C(=O)O)cc1)S(=O)(=O)CC(C)C)NC(=O)CN(C[C@H](CCCCN)NC(=O)CN(C[C@H](Cc1ccc(O)cc1)NC(=O)CN(C[C@H](CCC(=O)O)NC(=O)CN(C[C@@H](NC(=O)CN(C[C@H](CCCCN)NC(=O)CN(C[C@H](Cc1c[nH]c2ccccc12)NC(=O)CN(C[C@H](CCC(=O)O)NC(=O)CN(C[C@H](Cc1c[nH]c2ccccc12)NC(C)=O)S(=O)(=O)CC(C)C)S(=O)(=O)c1ccc(C(=O)O)cc1)S(=O)(=O)CC(C)C)S(=O)(=O)CCN)[C@H](C)CC)S(=O)(=O)CC(C)C)S(=O)(=O)c1ccc(C(=O)O)cc1)S(=O)(=O)CC(C)C)S(=O)(=O)CCN`, the IC50 in data set [1] is above 100 µM. The CC50 at 72 h in data set [2] is above 100 µM.
Regarding `CC[C@@H](C)[C@@H](CN(CC(=O)N[C@@H](CCC(=O)O)CN(CC(=O)N[C@@H](CC(C)C)CN(CC(=O)N[C@@H](CCCCN)CN(CC(=O)N[C@@H](CC(C)C)CN(CC(N)=O)S(=O)(=O)CC(C)C)S(=O)(=O)CCN)S(=O)(=O)CC(C)C)S(=O)(=O)c1ccc(C(=O)O)cc1)S(=O)(=O)CC(C)C)NC(=O)CN(C[C@H](CCCCN)NC(=O)CN(C[C@H](Cc1ccc(O)cc1)NC(=O)CN(C[C@H](CCC(=O)O)NC(=O)CN(C[C@@H](NC(=O)CN(C[C@H](CCCCN)NC(=O)CN(C[C@H](Cc1c[nH]c2ccccc12)NC(=O)CN(C[C@H](CCC(=O)O)NC(=O)CN(C[C@H](Cc1c[nH]c2ccccc12)NC(=O)CN(C[C@H](CCSC)NC(C)=O)S(=O)(=O)c1ccc(OC)cc1)S(=O)(=O)CC(C)C)S(=O)(=O)c1ccc(C(=O)O)cc1)S(=O)(=O)CC(C)C)S(=O)(=O)CCN)[C@H](C)CC)S(=O)(=O)CC(C)C)S(=O)(=O)c1ccc(C(=O)O)cc1)S(=O)(=O)CC(C)C)S(=O)(=O)CCN`, the IC50 in data set [1] was found to be 15.7 µM. In addition, the cytotoxic concentration (CC50) at 72 h in data set [2] was above 100 µM. The selectivity ratio in data set [3] is above 6.3.
As to `CC[C@@H](C)[C@@H](CN(CC(=O)N[C@@H](CCC(=O)O)CN(CC(=O)N[C@@H](Cc1ccc(O)cc1)CN(CC(=O)N[C@@H](CCCCN)CN(CC(=O)N[C@H](CN(CC(=O)N[C@@H](CCC(=O)O)CN(CC(=O)N[C@@H](CC(C)C)CN(CC(N)=O)S(=O)(=O)CC(C)C)S(=O)(=O)c1ccc(C(=O)O)cc1)S(=O)(=O)CC(C)C)[C@H](C)CC)S(=O)(=O)CCN)S(=O)(=O)CC(C)C)S(=O)(=O)c1ccc(C(=O)O)cc1)S(=O)(=O)CC(C)C)NC(=O)CN(C[C@H](CCCCN)NC(=O)CN(C[C@@H](Cc1c[nH]c2ccccc12)NC(=O)CN(C[C@H](CCC(=O)O)NC(=O)CN(C[C@H](Cc1c[nH]c2ccccc12)NC(=O)CN(C[C@H](CCSC)NC(C)=O)S(=O)(=O)CC(C)C)S(=O)(=O)CC(C)C)S(C)(=O)=O)S(=O)(=O)CC(C)C)S(=O)(=O)CCN`, the IC50 in data set [1] was above 40 µM. Besides, the CC50 at 72 h in data set [2] was above 40 µM.
